Results published in patent US12319703B2, “Macrocyclic fused pyrazoles as Mcl-1 inhibitors” (ASCENTAGE PHARMA (SUZHOU) CO., LTD., priority 2019, dated 2025).
In brackets after ≈: the same amount, converted by molar mass.

Key:
[1] = Kinetic solubility assay; format: physicochemical; conditions: pH 6.5 PBS buffer, HPLC; for solubility: PBS buffer pH 6.5, aqueous buffer, thermodynamic from solid, read-out: Solubility (pH 6.5, μg/mL)
Protocol: Representative Compounds of the Disclosure were tested in a solubility assay with pH 6.5 PBS buffer. PBS buffer was prepared by dissolving 4.86 g of potassium dihydrogen phosphate and 5.09 g of disodium hydrogen phosphate dodecahydrate in 1 L of ultrapure water to have final pH value of 6.5. In the solubility assay, 0.5 mg of test sample was dissolved in 1 mL of methanol and the stock solution was transferred into 2 mL EP tube, and evaporated at 50° C. for 3 h. To the tube was added 1 mL of PBS buffer and the mixture was stirred and shaken for 1-2 h. The solution was allowed to stand overnight and then filtered before HPLC analysis. Another 1.5 mg of the sample was dissolved in 3 mL of methanol to prepare a calibration curve with a series of concentration range of 5-500 μM. The solubility of each sample was determined by the measured peak area in HPLC.

[2] = test system: NCI-H929 cells; assay: Cell viability assay (NCI-H929 cells), CCK-8; format: cell-based; conditions: Homo sapiens, NCI-H929, 24 h, WST, 5% FBS
Protocol: Cell Viability Assay (NCI-H929 Cells)
NCI-H929 cells were obtained from American Type Culture Collection (ATCC). Cells were maintained in the recommended culture medium (RPMI 1640) with 10% FBS and 0.05 mM BME at 37° C. and an atmosphere of 5% CO2.
The effect of Compounds on cell viability was determined using Cell Counting Kit-8 (CCK-8) assay according to the manufacturer's instructions. 95 μL of NCI-H929 cell suspension (20000 cells/well) in culture medium were seeded into 96-well plates and cultured 4 hrs. Each tested compound was serially diluted in DMSO, then 5 μL of the compound or DMSO was diluted in 95 μL medium once more. At last, 5 μL of the compound dilution was added to the corresponding well of the cell plate. After the addition of the tested compound, the cells were incubated at 37° C. in an atmosphere of 5% CO2 for 24 hrs. At the end, 10 μL of CCK-8 solution was added to each well of the plate and incubated for 1-4 hours. The plates were read at 450 nm on the microplate reader (BioTek Synergy 1MF). The readings were normalized to the vehicle cells, and the IC50 was calculated by nonlinear regression analysis using GraphPad Prism 6 software.

[3] = target: T1, Mcl-1 protein (residues 171-323) (Homo sapiens, UniProt Q07820); assay: Inhibition of Mcl-1 by fluorescence polarization (FP) competitive binding assay; conditions: FAM-Bid tracer 2 nM, Mcl-1 20 nM, 30 min
T1 construct: Tag-free Mcl-1 protein (residues 171-323) was used in the FP assay
Protocol: Inhibition of Mcl-1 by Fluorescence Polarization (FP) Assay.
The method used a fluorescein labelled peptide (FAM-Bid) which binds to the Mcl-1 protein leading to an increased anisotropy measured in milli-polarization (mP) values using a plate reader.
A 10-points serial dilution of each compound was prepared in DMSO and 5 μL solution was transferred into flat bottomed, 96-well back plate (final DMSO concentration 5%). 120 μL of Buffer (PBS, 0.01% BGG (Sigma Cat. #SRE0011), 0.01% Triton X-100), containing the Fluorescein labelled peptide (Final concentration 2 nM) and Mcl-1 protein (final concentration 20 nM) was then added. […] 10-points dose response curves were plotted with GraphPad software using Sigmoidal Dose-Response Model and the IC50 values were determined by nonlinear regression fitting of the competition curves.

[4] = test system: OPM-2 cells; assay: Cell viability assay (OPM-2 cells), CCK-8; format: cell-based; conditions: Homo sapiens, OPM-2, 24 h, WST, 5% FBS, read-out: OPM2 (WST, 5% FBS)
Protocol: Cell Viability Assay (OPM-2 Cells)
OPM-2 cells were obtained from Deutsche Sammlung von Mikroorganismen und Zellkulturen GmbH (DSMZ). […]
The effect of representative Compounds of the Disclosure on cell viability was determined using Cell Counting Kit-8 (CCK-8) assay (Shanghai Life iLab Bio Technology) according to the manufacturer's instructions. Each tested compound was serially diluted in culture medium, 100 μL of the compound dilution was added into 96-well plates. 100 μL of an OPM-2 cell suspension (20000 cells/well) in culture medium were seeded into the corresponding well of the plate and the cells were incubated at 37° C. in an atmosphere of 5% CO2 for 24 hours. In the next day, 20 μL of CCK-8 solution was added to each well of the plate and incubated for 4 hours.
The plates were read at 450 nm on the microplate spectrophotometer (SpectraMax plus 384, Molecular devices). The readings were normalized to the vehicle cells, and the IC50 was calculated by nonlinear regression analysis using GraphPad Prism 6 software.

T1 sequence (Q07820 171-323): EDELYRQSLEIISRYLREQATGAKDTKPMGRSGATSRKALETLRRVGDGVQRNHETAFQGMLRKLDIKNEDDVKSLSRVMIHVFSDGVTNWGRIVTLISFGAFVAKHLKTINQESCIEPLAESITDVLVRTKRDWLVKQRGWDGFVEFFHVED

SMILES	Solubility (pH 6.5, μg/mL) [1] [μg/mL]	IC50 [2] [nM]	IC50 [3] [nM]	solubility [1] [µg/mL]	IC50 [4] [nM]
Cc1nc2sc1CSc1cc(c3ccccc3c1)OCCCc1c(C(=O)O)n(C)c3c(c(Cl)ccc13)-c1c(nn3c1CCC3)CSC2 [compound 5, 1^6-chloro-1^1,6^4-dimethyl-2^5,2^6-dihydro-1^1H,2^4H-10-oxa-4,8-dithia-6(2,5)-thiazola-1(7,3)-indola-2(3,2)-pyrrolo[1,2-b]pyrazola-9(3,1)-naphthalenacyclotridecaphane-1^2-carboxylic acid]		960	11.3	2 (≈ 2.85 µM)	973
Cc1c2c(nn1C)CSCc1cc(n(C)n1)CSc1cc(c3ccccc3c1)OCCCc1c(C(=O)O)n(C)c3c-2c(Cl)ccc13 [AZD5991, (Z)-1^6-chloro-1^1,2^1,2^5,6^1-tetramethyl-1H,2^1H,6^1H-10-oxa-4,8-dithia-1(7,3)-indola-2(4,3),6(3,5)-dipyrazola-9(3,1)-naphthalenacyclotridecaphane-1^2-carboxylic acid, reference compound]		47		< 1	
Cc1c2c(nn1C)CN(S(C)(=O)=O)Cc1cc(n(C)n1)CSc1cc(c3ccc(F)cc3c1)OCCCc1c(C(=O)O)n(C)c3c-2c(Cl)ccc13 [compound 48, (R)-(Z)-1^6-chloro-9^6-fluoro-1^1,2^1,2^5,6^1-tetramethyl-4-(methylsulfonyl)-1^1H,2^1H,6^1H-10-oxa-8-thia-4-aza-1(7,3)-indola-2(4,3),6(3,5)-dipyrazola-9(3,1)-naphthalenacyclotridecaphane-1^2-carboxylic acid]	3				
Cc1oc2nc1CSc1cc(c3ccccc3c1)OCCCc1c(C(=O)O)n(C)c3c(c(Cl)ccc13)-c1c(nn3c1OCC3)CSC2 [compound 38, (Z)-1^6-chloro-1^1,6^5-dimethyl-2^2,2^3-dihydro-1^1H-10-oxa-4,8-dithia-2(7,6)-pyrazolo[5,1-b]oxazola-6(2,4)-oxazola-1(7,3)-indola-9(3,1)-naphthalenacyclotridecaphane-1^2-carboxylic acid]		5990	85	127 (≈ 185 µM)	5880
Cc1c2c(nn1C)CN(S(C)(=O)=O)Cc1cc(n(C)n1)CSc1cc(c3ccc(F)cc3c1)OCCCc1c(C(=O)O)n(C)c3c-2c(Cl)ccc13 [compound 47, (S)-(Z)-1^6-chloro-9^6-fluoro-1^1,2^1,2^5,6^1-tetramethyl-4-(methylsulfonyl)-1^1H,2^1H,6^1H-10-oxa-8-thia-4-aza-1(7,3)-indola-2(4,3),6(3,5)-dipyrazola-9(3,1)-naphthalenacyclotridecaphane-1^2-carboxylic acid]	<1				
Cc1cc2ccc1CSc1cc(c3ccc(F)cc3c1)OCCCc1c(C(=O)O)n(C)c3c(c(Cl)ccc13)-c1c(nn3c1CCC3)CSC2 [compound 30, 1^6-chloro-9^6-fluoro-1^1,6^3-dimethyl-2^5,2^6-dihydro-1^1H,2^4H-10-oxa-4,8-dithia-1(7,3)-indola-2(3,2)-pyrrolo[1,2-b]pyrazola-9(3,1)-naphthalena-6(1,4)-benzenacyclotridecaphane-1^2-carboxylic acid]		196	14.2	< 1	255
Cn1nc2c(Cl)c1CSc1cc(c3ccccc3c1)OCCCc1c(C(=O)O)n(C)c3c(c(Cl)ccc13)-c1c(nn3c1CCCC3)CSC2 [compound 24, (E)-1^6,6^4-dichloro-1^1,6^1-dimethyl-2^4,2^5,2^6,2^7-tetrahydro-1^1H,6^1H-10-oxa-4,8-dithia-2(3,2)-pyrazolo[1,5-a]pyridina-1(7,3)-indola-6(3,5)-pyrazola-9(3,1)-naphthalenacyclotridecaphane-1^2-carboxylic acid]		1640	14.3	< 1	4860
Cc1c2c(nn1C)CN(S(C)(=O)=O)Cc1cc(n(C)n1)CSc1cc(c3ccc(F)cc3c1)OCCCc1c(C(=O)O)n(C)c3c-2c(Cl)ccc13 [compound 45, (Z)-1^6-chloro-9^6-fluoro-1^1,2^1,2^5,6^1-tetramethyl-4-(methylsulfonyl)-1^1H,2^1H,6^1H-10-oxa-8-thia-4-aza-1(7,3)-indola-2(4,3),6(3,5)-dipyrazola-9(3,1)-naphthalenacyclotridecaphane-1^2-carboxylic acid]	>400				

The next lines start with results.

Solubility (pH 6.5, μg/mL) [1] [μg/mL]	IC50 [2] [nM]	IC50 [3] [nM]	solubility [1] [µg/mL]	SMILES	IC50 [4] [nM]
<1				Cn1nc2cc1CSc1cc(c3ccc(F)cc3c1)OCCCc1c(C(=O)O)n(C)c3c(c(Cl)ccc13)-c1c(nn3c1COCC3)CSC2 (atropisomer, axis not shown) [compound 39, (S)-(Z)-1^6-chloro-9^6-fluoro-1^1,6^1-dimethyl-26,27-dihydro-1^1H,2^4H,6^1H-10-oxa-4,8-dithia-2(3,2)-pyrazolo[5,1-c][1,4]oxazina-1(7,3)-indola-6(3,5)-pyrazola-9(3,1)-naphthalenacyclotridecaphane-1^2-carboxylic acid]	
	1620	19	< 1	Cn1nc2cc1CSc1cc(c3cc(Cl)ccc3c1)OCCCc1c(C(=O)O)n(C)c3c(c(Cl)ccc13)-c1c(nn3c1COCC3)CSC2 [compound 18, (Z)-1^6,9^7-dichloro-1^1,6^1-dimethyl-2^6,2^7-dihydro-1^1H,2^4H,6^1H-10-oxa-4,8-dithia-2(3,2)-pyrazolo[5,1-c][1,4]oxazina-1(7,3)-indola-6(3,5)-pyrazola-9(3,1)-naphthalenacyclotridecaphane-1^2-carboxylic acid]	3490
	100	10	< 1	Cn1nc2cc1CSc1cc(c3ccccc3c1)OCCCc1c(C(=O)O)n(C)c3c(c(Cl)ccc13)-c1c(nn3c1CCCCC3)CSC2 [compound 23, (Z)-1^6-chloro-1^1,6^1-dimethyl-2^5,2^6,2^7,2^8-tetrahydro-1^1H,2^4H,6^1H-10-oxa-4,8-dithia-2(3,2)-pyrazolo[1,5-a]azepina-1(7,3)-indola-6(3,5)-pyrazola-9(3,1)-naphthalenacyclotridecaphane-1^2-carboxylic acid]	195
	116	15.8	3 (≈ 4.19 µM)	Cn1nc2cc1CSc1cc(c3ccccc3c1)OCCCc1c(C(=O)O)n(C)c3c(c(Cl)ccc13)-c1c(nn3c1CSCC3)CSC2 [compound 21, (Z)-1^6-chloro-1^1,6^1-dimethyl-2^6,2^7-dihydro-1^1H,2^4H,6^1H-10-oxa-4,8-dithia-2(3,2)-pyrazolo[5,1-c][1,4]thiazina-1(7,3)-indola-6(3,5)-pyrazola-9(3,1)-naphthalenacyclotridecaphane-1^2-carboxylic acid]	291
74				Cn1nc2cc1CSc1cc(c3ccc(F)cc3c1)OCCCc1c(C(=O)O)n(C)c3c(c(Cl)ccc13)-c1c(nn3c1COCC3)CSC2 (atropisomer, axis not shown) [compound 40, (R)-(Z)-1^6-chloro-9^6-fluoro-1^1,6^1-dimethyl-26,27-dihydro-1^1H,2^4H,6^1H-10-oxa-4,8-dithia-2(3,2)-pyrazolo[5,1-c][1,4]oxazina-1(7,3)-indola-6(3,5)-pyrazola-9(3,1)-naphthalenacyclotridecaphane-1^2-carboxylic acid]	
